Among the data in PMC3264756 (2011) are EC50 values, retold here.

This assay deals with acetyl-CoA carboxylase (TbACC) (Trypanosoma brucei, UniProt Q57YR7). The assay is classed as biochemical.

Structures are written as SMILES.

`CC(Oc1ccc(Oc2ncc(C(F)(F)F)cc2Cl)cc1)C(=O)O` (stereo not shown) [haloxyfop] showed an EC50 of 67 µM.
